The values that follow come from PubChem BioAssay AID248 (DTP/NCI, 2004).

Molecules are shown by their SMILES. Toxic doses and inconclusive results are not listed.

For this experiment, the system named is L1210 leukemia ip in BDF1 mice, survival T/C. As to the kind of experiment: NCI In Vivo Anticancer Drug Screen. Data for tumor model L1210 Leukemia (intraperitoneal) in B6D2F1 (BDF1) mice. The settings on record: endpoint: mean survival time, higher = longer survival. An outline of the steps:
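Value reflects the ratio of survival in compound-treated mice to survival in vehicle-treated controls, with both groups carrying the same transplanted tumor.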

[1] abbreviates: dose: 100.0 mg/kg/injection, schedule: Q01DX001 (ip), vehicle: saline.
Where [2] appears, read: dose: 100.0 mg/kg/injection, schedule: Q01DX009 (ip), vehicle: saline.
Setting [3] is: dose: 100.0 mg/kg/injection, schedule: Q04DX003 (ip), vehicle: saline.
[4] abbreviates: dose: 200.0 mg/kg/injection, schedule: Q01DX001 (ip), vehicle: saline.
The mark [5] stands for this setting: dose: 200.0 mg/kg/injection, schedule: Q01DX009 (ip), vehicle: saline.
The mark [6] stands for this setting: dose: 200.0 mg/kg/injection, schedule: Q04DX003 (ip), vehicle: saline.
Setting [7] is: dose: 400.0 mg/kg/injection, schedule: Q01DX009 (ip), vehicle: saline.
[8] abbreviates: dose: 400.0 mg/kg/injection, schedule: Q04DX003 (ip), vehicle: saline.
The mark [9] stands for this setting: dose: 100.0 mg/kg/injection, schedule: Q01DX009 (ip), vehicle: Klucel (hydroxypropylcellulose) (HPC).
Setting [10] is: dose: 100.0 mg/kg/injection, schedule: Q04DX003 (ip), vehicle: Klucel (hydroxypropylcellulose) (HPC).
Where [11] appears, read: dose: 200.0 mg/kg/injection, schedule: Q01DX009 (ip), vehicle: Klucel (hydroxypropylcellulose) (HPC).
Setting [12] is: dose: 200.0 mg/kg/injection, schedule: Q04DX003 (ip), vehicle: Klucel (hydroxypropylcellulose) (HPC).
[13] abbreviates: dose: 400.0 mg/kg/injection, schedule: Q01DX009 (ip), vehicle: Klucel (hydroxypropylcellulose) (HPC).
[14] abbreviates: dose: 400.0 mg/kg/injection, schedule: Q04DX003 (ip), vehicle: Klucel (hydroxypropylcellulose) (HPC).

Regarding `C/C(=N/N=C(N)N)c1ccc(NC(=S)Nc2ccc(/C(C)=N/N=C(N)N)cc2)cc1`, the T/C (dose: 20.0 mg/kg/injection, schedule: Q01DX009 (ip), vehicle: water) was 176 % of control.

Regarding `Cn1c(C(Cl)Cl)nc2ccccc2c1=O`, the T/C reads like this: (dose: 50.0 mg/kg/injection, schedule: Q01DX001 (ip), vehicle: carboxymethylcellulose (CMC)) 106 % of control; (dose: 100.0 mg/kg/injection, schedule: Q01DX001 (ip), vehicle: carboxymethylcellulose (CMC)) 106 % of control; (dose: 200.0 mg/kg/injection, schedule: Q01DX001 (ip), vehicle: carboxymethylcellulose (CMC)) 106 % of control; (dose: 400.0 mg/kg/injection, schedule: Q01DX001 (ip), vehicle: carboxymethylcellulose (CMC)) 97 % of control.

Turning to `C/C=C\c1ccc(OCCOC(=O)Nc2ccc(Cl)cc2C(F)(F)F)c(OC)c1`, the T/C by setting is: (dose: 100.0 mg/kg/injection, schedule: Q01DX009 (ip), vehicle: saline with Tween-80) 91 % of control; (dose: 200.0 mg/kg/injection, schedule: Q01DX009 (ip), vehicle: saline with Tween-80) 96 % of control; (dose: 400.0 mg/kg/injection, schedule: Q01DX009 (ip), vehicle: saline with Tween-80) 89 % of control.

As for `C/C1=C/CCCCCC1`, the T/C is 90 % of control under setting [1]; 96 % of control under setting [2]; 96 % of control under setting [3]; 101 % of control under setting [4]; 89 % of control under setting [5]; 101 % of control under setting [6]. The T/C runs as follows: under setting [7], 94 % of control; under setting [8], 98 % of control.

`O=C1CCCC/C1=C/c1ccc(Cl)cc1`: the T/C is 95 % of control under setting [9]; 103 % of control under setting [10]; 98 % of control under setting [11]; 106 % of control under setting [12]; 101 % of control under setting [13]; 105 % of control under setting [14].

Consider `Brc1cccc[n+]1-c1ccc2cc(-[n+]3ccccc3Br)ccc2c1`, for which the T/C (dose: 9.38 mg/kg/injection, schedule: Q01DX001 (ip), vehicle: other) is 100 % of control.

In the case of `O=c1[nH]cnc2nccnc12`, the T/C by setting is: (dose: 25.0 mg/kg/injection, schedule: Q04DX003 (ip), vehicle: saline) 100 % of control; (dose: 50.0 mg/kg/injection, schedule: Q04DX003 (ip), vehicle: saline) 101 % of control; under setting [3], 88 % of control; under setting [6], 90 % of control.

In the case of `CC(=O)OC(C(=O)c1ccccc1)C(=O)c1ccccc1`, the T/C is, setting by setting: (dose: 100.0 mg/kg/injection, schedule: Q01DX001 (ip), vehicle: Klucel (hydroxypropylcellulose) (HPC)) 88 % of control; (dose: 200.0 mg/kg/injection, schedule: Q01DX001 (ip), vehicle: Klucel (hydroxypropylcellulose) (HPC)) 108 % of control; (dose: 400.0 mg/kg/injection, schedule: Q01DX001 (ip), vehicle: Klucel (hydroxypropylcellulose) (HPC)) 88 % of control.

`O=C(O)c1ccccc1SCCO`: the T/C was 109 % of control under setting [2], 94 % of control under setting [5] and 95 % of control under setting [7].

Turning to `CC(=O)OCC(=O)C1(O)C(C)CC2C3C=C(C)C4=Cc5c(cnn5-c5ccccc5)CC4(C)C3C(O)CC21C` (centres undefined), the T/C was 110 % of control (dose: 8.0 mg/kg/injection, schedule: Q01DX001 (sc), vehicle: steriod suspending solution); 105 % of control (dose: 16.0 mg/kg/injection, schedule: Q01DX001 (sc), vehicle: steriod suspending solution); 113 % of control (dose: 32.0 mg/kg/injection, schedule: Q01DX001 (sc), vehicle: steriod suspending solution); 106 % of control (dose: 45.0 mg/kg/injection, schedule: Q01DX001 (sc), vehicle: steriod suspending solution); 89 % of control (dose: 70.0 mg/kg/injection, schedule: Q01DX001 (sc), vehicle: steriod suspending solution); 95 % of control (dose: 105.0 mg/kg/injection, schedule: Q01DX001 (sc), vehicle: steriod suspending solution). Further, the T/C is 98 % of control (dose: 160.0 mg/kg/injection, schedule: Q01DX001 (sc), vehicle: steriod suspending solution); 110 % of control (dose: 240.0 mg/kg/injection, schedule: Q01DX001 (sc), vehicle: steriod suspending solution); 93 % of control (dose: 360.0 mg/kg/injection, schedule: Q01DX001 (sc), vehicle: steriod suspending solution).

Consider `CC(=O)Nc1ccc(Cc2ccc(N)cc2)cc1`, for which the T/C reads like this: under setting [1], 108 % of control; under setting [4], 104 % of control.

For the molecule `CCCN=Cc1ccccc1O.CCCN=Cc1ccccc1O.[Cu]`, the T/C is 94 % of control (dose: 9.5 mg/kg/injection, schedule: Q01DX001 (ip), vehicle: other); 100 % of control (dose: 19.0 mg/kg/injection, schedule: Q01DX001 (ip), vehicle: other); 97 % of control (dose: 38.0 mg/kg/injection, schedule: Q01DX001 (ip), vehicle: other).

As to `NC(=O)c1ccccc1OC(=O)Nc1ccc(F)c([N+](=O)[O-])c1`, the T/C is 97 % of control under setting [9], 104 % of control under setting [11] and 101 % of control under setting [13].

For `O=C(O)C(Cl)Cc1cnc[nH]1` (centres undefined), the T/C by setting is: (dose: 50.0 mg/kg/injection, schedule: Q01DX009 (ip), vehicle: saline) 100 % of control; under setting [2], 100 % of control; under setting [5], 103 % of control.

In the case of `CCC1CSC(=S)N1` (centres undefined), the T/C is 92 % of control (dose: 3.12 mg/kg/injection, schedule: Q01DX009 (ip), vehicle: acetone); 103 % of control (dose: 3.12 mg/kg/injection, schedule: Q04DX003 (ip), vehicle: saline); 102 % of control (dose: 6.25 mg/kg/injection, schedule: Q01DX009 (ip), vehicle: acetone); 101 % of control (dose: 6.25 mg/kg/injection, schedule: Q04DX003 (ip), vehicle: saline); 102 % of control (dose: 12.5 mg/kg/injection, schedule: Q04DX003 (ip), vehicle: saline).

Turning to `c1ccc(CN=C2c3ccccc3C3(c4ccccc4)C2N3Cc2ccccc2)cc1` (centres undefined), the T/C is 103 % of control under setting [9]; 98 % of control under setting [10]; 103 % of control under setting [11]; 101 % of control under setting [12]; 103 % of control under setting [13]; 97 % of control under setting [14].

In the case of `CC(=O)CC(=O)Nc1cc(C)ccc1C`, the T/C by setting is: under setting [3], 101 % of control; under setting [6], 118 % of control; under setting [8], 95 % of control.

Turning to `CC(OC(=O)CF)C(C)OC(=O)CF` (centres undefined), the T/C runs as follows: (dose: 0.5 mg/kg/injection, schedule: Q01DX001 (ip), vehicle: carboxymethylcellulose (CMC)) 110 % of control; (dose: 1.0 mg/kg/injection, schedule: Q01DX001 (ip), vehicle: carboxymethylcellulose (CMC)) 94 % of control; (dose: 2.0 mg/kg/injection, schedule: Q01DX001 (ip), vehicle: carboxymethylcellulose (CMC)) 108 % of control; (dose: 4.0 mg/kg/injection, schedule: Q01DX001 (ip), vehicle: carboxymethylcellulose (CMC)) 100 % of control; (dose: 8.0 mg/kg/injection, schedule: Q01DX001 (ip), vehicle: carboxymethylcellulose (CMC)) 108 % of control.

With `CC(C)CCC[C@@H](C)[C@H]1CC[C@H]2[C@@H]3C[C@@H](Br)[C@@]4(Br)C[C@@H](Cl)CC[C@]4(C)[C@H]3CC[C@]12C`, the T/C by setting is: (dose: 50.0 mg/kg/injection, schedule: Q01DX001 (ip), vehicle: other) 102 % of control; (dose: 100.0 mg/kg/injection, schedule: Q01DX001 (ip), vehicle: other) 107 % of control; (dose: 200.0 mg/kg/injection, schedule: Q01DX001 (ip), vehicle: other) 96 % of control; (dose: 400.0 mg/kg/injection, schedule: Q01DX001 (ip), vehicle: other) 96 % of control.

Turning to `CCNCC(=O)O`, the T/C by setting is: (dose: 100.0 mg/kg/injection, schedule: Q04DX002 (ip), vehicle: saline) 96 % of control; (dose: 200.0 mg/kg/injection, schedule: Q04DX002 (ip), vehicle: saline) 101 % of control; (dose: 400.0 mg/kg/injection, schedule: Q04DX002 (ip), vehicle: saline) 104 % of control.
